Tested on: androgen receptor (AR) in LNCaP and/or VCaP cells
Assay: Androgen Receptor ELISA assay (AR degradation)
Assay type: cell-based
Conditions: degradation of AR ELISA in LNCaP and/or VCaP cells; Table 2C; read-out: DC50 Code*
How it was run: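 VCaP cells grown ≥3 days, then treated 5 h with compound in media containing 1 nM R1881 (10× stock). Cells lysed and AR quantified by sandwich ELISA (mouse AR detection Ab, HRP anti-mouse, TMB). DC50 and Dmax derived from AR degradation.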

Cc1cc(O[C@H]2C(C)(C)[C@H](NC(=O)c3cnc(N4CCC(CN(C(C)C)[C@H]5C[C@H](Oc6ccc7c(c6)C(=O)N(C6CCC(=O)NC6=O)C7=O)C5)CC4)cn3)C2(C)C)cc(C)c1C#N (stereo partly shown) [compound 112, N-((1r,3r)-3-(4-cyano-3,5-dimethylphenoxy)-2,2,4,4-tetramethylcyclobutyl)-5-(4-((((1r,3r)-3-((2-(2,6-dioxopiperidin-3-yl)-1,3-dioxoisoindolin-5-yl)oxy)cyclobutyl) (isopropyl)amino)methyl)piperidin-1-yl)pyrazine-2-carboxamide]
DC50: < 1 nM

From patent US20260053932A1, “COMPOUNDS AND METHODS FOR THE TARGETED DEGRADATION OF ANDROGEN RECEPTOR AND ASSOCIATED METHODS OF USE” (Arvinas Operations, Inc., priority 2020, published 2026)
